Experimental data from patent publication US20060154984A1, “Therapeutic use of acyl glycerols and the nitrogen- and sulphur- containing analogues thereof” (priority 2003, published 2006).

What was measured:
[1] = target: T1, PPARα (Homo sapiens, UniProt Q07869); assay: Gal4/PPARα transactivation system in HepG2 cells (luciferase reporter); format: cell-based; conditions: HepG2 cells transfected with Gal4/PPARα plasmids, 24 h
T1 construct: expressed in transfected cells; host or cells: HepG2
T1 sequence (Q07869 239-466 limits assumed): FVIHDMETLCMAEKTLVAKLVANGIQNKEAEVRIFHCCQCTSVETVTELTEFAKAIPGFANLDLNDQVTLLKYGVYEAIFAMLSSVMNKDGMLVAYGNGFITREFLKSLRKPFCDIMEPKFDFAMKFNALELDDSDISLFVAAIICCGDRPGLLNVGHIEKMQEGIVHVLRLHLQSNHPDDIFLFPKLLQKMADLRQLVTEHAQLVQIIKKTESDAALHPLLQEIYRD
Description: PPAR activation was tested in vitro in RK13 fibroblast cell lines or in a hepatocyte line HepG2 by measuring the transcriptional activity of chimeras composed of the DNA binding domain of the yeast gal4 transcription factor and the ligand binding domain of the different PPARs. The example below is given for HepG2 cells.
HepG2 cells were from ECACC (Porton Down, UK) and were grown in DMEM medium supplemented with 10% (VN) fetal calf serum, 100 U/ml penicillin (Gibco, Paisley, UK) and 2 mM L-glutamine (Gibco, Paisley, UK). The culture medium was changed every two days. Cells were kept at 37° C. in a humidified 95% air/5% CO2 atmosphere.
The plasmids pG5TkpGL3, PRL-CMV, pGal4-hPPARα, pGal4-hPPARγ and pGal4-f have been described by Raspe et al. (Raspe, Madsen et al. 1999). The pGal4-mPPARα and pGal4-hPPARβ constructs were obtained by cloning PCR-amplified DNA fragments corresponding to the DEF domains of the mouse PPARα and […] nuclear receptors, respectively, into the pGal4-f vector.
HepG2 cells were seeded in 24-well culture dishes at 5×10^4 cells/well and transfected for 2 hours with the reporter plasmid pG5TkpGL3 (50 ng/well), the expression vectors pGal4-f, pGal4-mPPARα, pGal4-hPPARα, pGal4-hPPARγ, or pGal4-hPPARβ (100 ng/well) and the transfection efficiency control vector pRL-CMV (1 ng/well) according to the previously described protocol (Raspe, Madsen et al. 1999), then incubated for 36 hours with the test compounds. At the end of the experiment, the cells were lysed (Gibco, Paisley, UK) and luciferase activity was determined with a Dual-Luciferase™ Reporter Assay System kit (Promega, Madison, Wis., USA) according to the supplier's instructions. The protein content of the cell extracts was then measured with the Bio-Rad Protein Assay kit (Bio-Rad, Munich, Germany) as directed by the supplier. […] FIG. 3 gives an example of the results obtained with the inventive compounds.
FIG. 3: HepG2 cells transfected with Gal4/PPARα plasmids were incubated with different concentrations (5, 15, 50 and 100 μM) of the inventive comopunds (Ex 2a, Ex 4a, Ex 4p, Ex 5a, Ex 7 and Ex 11) for 24 h and with different concentrations of the vehicle (PC) noted 1, 2, 3, 4 as controls for the 5, 15, 50 and 100 μM concentrations of the inventive compounds (according to the 4:1 (m/m) ratio described in example 2 (Method of preparation of the inventive compounds for in vitro studies)). The results are expressed as the induction factor (luminescent signal of treated cells divided by luminescent signal of untreated cells) after the different treatments. […] The induction factors for inventive compound Ex 4p were 35 at 100 μM, 44 at 50 μM, 36 at 15 μM and 24 at 5 μM. The induction factors for compound Ex 5a were 32 at 100 μM, 34 at 50 μM, 15 at 15 μM and 4 at 5 μM. Finally, inventive compound Ex 7 induced a 19-fold induction at 100 μM, 19 at 50 μM, 7 at 15 μM and 1.5 at 5 μM. In contrast, when the cells were incubated with the vehicle (PC liposome), no significant induction was observed.

[2] = test system: 6-OHDA-induced dopaminergic lesion; assay: Rat model of Parkinson's disease (6-OHDA), behavioral sensitization to apomorphine; format: in vivo; conditions: Wistar rats, 300 mg/kg per day in diet, 7 days before and 15 days after 6-OHDA lesion
Description: Adult male Wistar rats (280-300 g) were maintained on a 12-hour light/dark cycle at a constant temperature of 20±3° C. Animals had access to food and water ad libitum and weight gain was recorded.
Animals were fed a normal diet or a diet supplemented with the inventive compounds (300 mg/kg per day) for 7 days before induction of the dopaminergic lesion and for 15 days after induction of same.
6-hydroxydopamine (6-OHDA) is a neurotoxin taken up by dopaminergic neurons via a dopamine transporter. Injection of said compound into striatonigral projections induces selective destruction of dopaminergic neurons, and has allowed the development of many animal models of Parkinson's disease (Bordet et al., 2000).
Seven days after commencement of treatment with the inventive compounds, the rats were stereotactically injected with 6-OHDA (4 μg for 8 min) or buffer (sham rats) in the left part of the median tract of the telencephalon to induce striatonigral denervation.
Apomorphine is a dopaminergic agonist which stimulates D1 and D2 receptors. The intensity of rotational behavior is an index allowing to measure the severity of the striatonigral lesion. At the end of the treatment, rats received an intraperitoneal injection of apomorphine and rotational behavior was evaluated 15 minutes after sensitization and for a 10 minute period.

CCCCCCCCCCCCCCSCC(=O)OCC(COC(=O)CSCCCCCCCCCCCCCC)OC(=O)CSCCCCCCCCCCCCCC [Ex 4a, 1,2,3-tritetradecylthioacetylglycerol]
induction factor (luminescent signal of treated cells divided by luminescent signal of untreated cells) ([1]; 5 μM): 6 fold | induction factor (luminescent signal of treated cells divided by luminescent signal of untreated cells) ([1]; 15 μM): 15 fold | induction factor (luminescent signal of treated cells divided by luminescent signal of untreated cells) ([1]; 50 μM): 23 fold | induction factor (luminescent signal of treated cells divided by luminescent signal of untreated cells) ([1]; 100 μM): 33 fold | number of apomorphine-induced rotations [2]: prophylactic and curative properties
